Experimental data taken from patent publication US20250368635A1, “HETEROARYL DERIVATIVE COMPOUND, AND USES THEREOF” (VORONOI, INC., priority 2022, published 2025).

Legend:
[1] = test system: Ba/F3 cells expressing EGFR L858R/C797S (EGFR LC); assay: Inhibition of proliferation of Ba/F3 cells expressing EGFR L858R/C797S (CellTiter-Glo, 72 h); format: cell-based; conditions: Mus musculus, BaF3, 72 hours treatment
Procedure: (§1) The following experiment was performed to evaluate the inhibitory activity of the compounds according to the present invention on the proliferation of Ba/F3 cells expressing EGFR Del19/C797S (EGFR DC) and EGFR L858R/C797S (EGFR LC) mutations.
(§2) Ba/F3 cells were cultured using medium (RPMI-1640) containing 10% fetal bovine serum (FBS) and 5 ng/ml IL-3 (R&D Systems). The transduced Ba/F3 cells were cultured by adding 1 μg/ml puromycin (Invitrogen) to the same medium.
(§3) 24 hours prior to treatment with compounds, 3,000 to 5,000 cells were seeded on a well plate (white clear bottom 96 well plate, Corning). The compounds were diluted in dimethyl sulfoxide (3-fold dilution, total of 12 concentrations) and injected at 1 μl each so that the final concentration was 0.2 nM to 5 μM. After 72 hours post treatment with compounds, living cells were stored at room temperature for 10 minutes using CellTiter-Glo luminescent cell-viability reagent (Promega), and the luminescence intensity thereof was measured using a reader (Synergy Neo, Biotek). Each test was repeated three times. The result values were calculated as a cell growth rate (%) compared to the control group. A graph was created using the GraphPad Prism version 8.3.0 program, and GI50 values were calculated.

[2] = test system: Ba/F3 cells expressing EGFR Del19/C797S (EGFR DC); assay: Inhibition of proliferation of Ba/F3 cells expressing EGFR Del19/C797S (CellTiter-Glo, 72 h); format: cell-based; conditions: Mus musculus, BaF3, 72 hours treatment
Procedure: as §1, §2, §3

Row | GI50 [1] [µM] | GI50 [2] [µM] | SMILES
1 | < 0.1 | < 0.1 | COc1cc(N2CCC3(CCOCC3)CC2)c(-c2cnn(C)c2)cc1Nc1cc(N2OCC[C@@H]2c2cccc(F)c2F)ncn1 [Example 28, (R)-6-(3-(2,3-difluorophenyl)isoxazolidin-2-yl)-N-(2-methoxy-5-(1-methyl-1H-pyrazol-4-yl)-4-(3-oxa-9-azaspiro[5.5]undecan-9-yl)phenyl)pyrimidin-4-amine]
2 | < 0.1 | < 0.1 | COc1cc(N2CCC3(CC2)CC(OC)C3)c(-c2cnn(C)c2)cc1Nc1cc(N2OCC[C@@H]2c2cccc(F)c2F)ncn1 [Example 30, (R)-6-(3-(2,3-difluorophenyl)isoxazolidin-2-yl)-N-(2-methoxy-4-(2-methoxy-7-azaspiro[3.5]nonan-7-yl)-5-(1-methyl-1H-pyrazol-4-yl)phenyl)pyrimidin-4-amine]
3 | 0.1 to 1 | 0.1 to 1 | COc1cc(N2CCC3(CC2)CC3(F)F)c(-c2cnn(C)c2)cc1Nc1cc(N2OCC[C@@H]2c2cccc(F)c2F)ncn1 [Example 32, (R)-N-(4-(1,1-difluoro-6-azaspiro[2.5]octan-6-yl)-2-methoxy-5-(1-methyl-1H-pyrazol-4-yl)phenyl)-6-(3-(2,3-difluorophenyl)isoxazolidin-2-yl)pyrimidin-4-amine]
4 | 0.1 to 1 | 0.1 to 1 | COc1cc(N2CCC3C(C2)C3(F)F)c(-c2cnn(C)c2)cc1Nc1cc(N2OCC[C@@H]2c2cccc(F)c2F)ncn1 (stereo partly drawn) [Example 41, N-(4-(7,7-difluoro-3-azabicyclo[4.1.0]heptan-3-yl)-2-methoxy-5-(1-methyl-1H-pyrazol-4-yl)phenyl)-6-((R)-3-(2,3-difluorophenyl)isoxazolidin-2-yl)pyrimidin-4-amine]
5 | < 0.1 | < 0.1 | COc1cc(N2CCC3(CCN(CCF)CC3)CC2)c(-c2cnn(C)c2)cc1Nc1cc(N2OCC[C@@H]2c2cccc(F)c2F)ncn1 [Example 50, (R)-6-(3-(2,3-difluorophenyl)isoxazolidin-2-yl)-N-(4-(9-(2-fluoroethyl)-3,9-diazaspiro[5.5]undecan-3-yl)-2-methoxy-5-(1-methyl-1H-pyrazol-4-yl)phenyl)pyrimidin-4-amine]
